The values below come from patent US8324248B2, “Piperidine derivatives as NK3 receptor antagonists” (Hoffmann-La Roche Inc., priority 2009, dated 2012).

pKi: −log10 of the molar value.

The experiment concerns the target T1, recombinant human NK3 receptor (Homo sapiens, UniProt P29371).
T1 construct: expressed in transfected cells; host or cells: HEK293 cells (transient expression), membranes
T1 sequence (P29371 1-465): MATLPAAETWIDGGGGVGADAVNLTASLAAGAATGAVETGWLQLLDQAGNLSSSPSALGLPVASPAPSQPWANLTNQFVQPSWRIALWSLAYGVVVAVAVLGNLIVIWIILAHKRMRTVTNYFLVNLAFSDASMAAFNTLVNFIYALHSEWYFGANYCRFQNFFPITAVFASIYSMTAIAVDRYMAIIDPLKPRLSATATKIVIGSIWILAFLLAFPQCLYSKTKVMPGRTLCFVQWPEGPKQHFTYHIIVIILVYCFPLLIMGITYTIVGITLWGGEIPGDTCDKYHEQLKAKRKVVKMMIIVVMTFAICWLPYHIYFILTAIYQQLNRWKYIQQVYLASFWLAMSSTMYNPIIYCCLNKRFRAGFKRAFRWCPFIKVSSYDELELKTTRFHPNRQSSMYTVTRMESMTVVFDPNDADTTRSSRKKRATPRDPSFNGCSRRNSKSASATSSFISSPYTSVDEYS
The experiment can be described thus: [3H]SR142801 competition binding assay, hNK3 receptor binding. To be noted: [3H]SR142801 displacement; membranes from HEK293 cells transiently expressing recombinant human NK3 receptor; Ki by Cheng-Prussoff from IC50. On the procedure:
The compounds were investigated in accordance with the tests given hereinafter. [^3H]SR142801 competition binding assay hNK3 receptor binding experiment were performed using [^3H]SR142801 (Catalog No. TRK1035, specific activity: 74.0 Ci/mmol, Amersham, GE Healthcare UK limited, Buckinghamshire, UK) and membrane isolated from HEK293 cells transiently expressing recombinant human NK3 receptor. After thawing, the membrane homogenates were centrifuged at 48,000×g for 10 min at 4° C., the pellets were resuspended in the 50 mM Tris-HCl, 4 mM MnCl2, 1 μM phosphoramidon, 0.1% BSA binding buffer at pH 7.4 to a final assay concentration of 5 μg protein/well. For inhibition experiments, membranes were incubated with [^3H]SR142801 at a concentration equal to KD value of radioligand and 10 concentrations of the inhibitory compound (0.0003-10 μM) (in a total reaction volume of 500 μl) for 75 min at room temperature (RT). At the end of the incubation, membranes were filtered onto unitfilter (96-well white microplate with bonded GF/C filter preincubated 1 h in 0.3% PEI+0.3% BSA, Packard BioScience, Meriden, Conn.) with a Filtermate 196 harvester (Packard BioScience) and washed 4 times with ice-cold 50 mM Tris-HCl, pH 7.4 buffer. Nonspecific binding was measured in the presence of 10 μM SB222200 for both radioligands. The radioactivity on the filter was counted (5 min) on a Packard Top-count microplate scintillation counter with quenching correction after addition of 45 μl of microscint 40 (Can berra Packard S. A., Zürich, Switzerland) and shaking for 1 h. Inhibition curves were fitted according to the Hill equation: y=100/(1+(x/IC50)^nH), where nH=slope factor using Excel-fit 4 software (Microsoft). IC50 values were derived from the inhibition curve and the affinity constant (Ki) values were calculated using the Cheng-Prussoff equation Ki=IC50/(1+[L]/KD) where [L] is the concentration of radioligand and KD is its dissociation constant at the receptor, derived from the saturation isotherm. All experiments were performed in duplicate and the mean±standard error (SEM) of the individual Ki values was calculated.
Turning to `Cc1noc(-c2ccc(C(=O)N3CC[C@H]([C@H](C)Oc4ccc(C#N)cn4)[C@@H](c4ccc(Cl)cc4)C3)cc2)n1` [Example 25, 6-((S)-1-{(3S,4S)-3-(4-Chloro-phenyl)-1-[4-(3-methyl-[1,2,4]oxadiazol-5-yl)-benzoyl]-piperidin-4-yl}-ethoxy)-nicotinonitrile], the negative-log Ki (pKi) is 8.82.

Turning to `C[C@H](Oc1ccc(C#N)cn1)[C@H]1CCN(C(=O)C2CCN(c3ccc(C#N)cn3)CC2)C[C@@H]1c1ccc(F)c(F)c1` [Example 65, 4-[(3S,4S)-4-[(S)-1-(5-Cyano-pyridin-2-yloxy)-ethyl]-3-(3,4-difluoro-phenyl)-piperidine-1-carbonyl]-3,4,5,6-tetrahydro-2H-[1,2′]bipyridinyl-5′-carbonitrile], the pKi is 9.40.

With `C[C@H](Oc1ccc(Cl)cc1)[C@H]1CCN(C(=O)C2CCN(c3ccc(C#N)cn3)CC2)C[C@@H]1c1ccc(Cl)cc1` [Example 55, 4-[(3S,4S)-4-[(S)-1-(4-Chloro-phenoxy)-ethyl]-3-(4-chloro-phenyl)-piperidine-1-carbonyl]-3,4,5,6-tetrahydro-2H-[1,2′]bipyridinyl-5′-carbonitrile], the negative logarithm of the Ki (pKi) was 9.05.

As for `C[C@H](Oc1ccc(C#N)cn1)[C@H]1CCN(C(=O)C2CCN(c3ccc(C#N)cn3)CC2)C[C@@H]1c1ccc(Cl)cc1` [Example 27, 4-{(3S,4S)-3-(4-Chloro-phenyl)-4-[(S)-1-(5-cyano-pyridin-2-yloxy)-ethyl]-piperidine-1-carbonyl}-3,4,5,6-tetrahydro-2H-[1,2′]bipyridinyl-5′-carbonitrile], the pKi was 9.52.

For the molecule `C[C@H](Oc1ncc(F)cn1)[C@H]1CCN(C(=O)C2CCN(c3ccc(C#N)cn3)CC2)C[C@@H]1c1ccc(Cl)cc1` [Example 61, 4-{(3S,4S)-3-(4-Chloro-phenyl)-4-[(S)-1-(5-fluoro-pyrimidin-2-yloxy)-ethyl]-piperidine-1-carbonyl}-3,4,5,6-tetrahydro-2H-[1,2′]bipyridinyl-5′-carbonitrile], the pKi is 8.82.

On to `C[C@H](Oc1ccc(Cl)cn1)[C@H]1CCN(C(=O)C2CCN(c3ccc(C#N)cn3)CC2)C[C@@H]1c1ccc(Cl)cc1` [Example 13, 4-{(3S,4S)-3-(4-Chloro-phenyl)-4-[(S)-1-(5-chloro-pyridin-2-yloxy)-ethyl]-piperidine-1-carbonyl}-3,4,5,6-tetrahydro-2H-[1,2′]bipyridinyl-5′-carbonitrile], for which the pKi was 9.52.

`C[C@H](Oc1ccc(Cl)cn1)[C@H]1CCN(C(=O)C2CCN(C(=O)C3(C)CC3)CC2)C[C@@H]1c1ccc(Cl)cc1` (stereo in doubt) [Example 7, (4-{(3S,4S)-3-(4-Chloro-phenyl)-4-[(S)-1-(5-chloro-pyridin-2-yloxy)-ethyl]-piperidine-1-carbonyl}-piperidin-1-yl)-(1-methyl-cyclopropyl)-methanone]: the pKi was 8.59.

As for `C[C@H](Oc1ccc(Cl)cn1)[C@H]1CCN(C(=O)C2CCN(C(=O)C3(C)CC3)CC2)C[C@@H]1c1ccc(Cl)cc1` (racemic) [Example 5, (4-{(3SR, 4SR)-3-(4-Chloro-phenyl)-4-[(SR)-1-(5-chloro-pyridin-2-yloxy)-ethyl]-piperidine-1-carbonyl}-piperidin-1-yl)-(1-methyl-cyclopropyl)-methanone], the pKi is 8.39.

As to `Cc1nc(-c2ccc(C(=O)N3CC[C@H]([C@H](C)Oc4ccc(Cl)cn4)[C@@H](c4ccc(Cl)cc4)C3)cc2)no1` [Example 12, {(3S,4S)-3-(4-Chloro-phenyl)-4-[(S)-1-(5-chloro-pyridin-2-yloxy)-ethyl]-piperidin-1-yl}-[4-(5-methyl-[1,2,4]oxadiazol-3-yl)-phenyl]-methanone], the pKi was 8.64.

As for `C[C@H](Oc1ccc(C#N)cn1)[C@H]1CCN(C(=O)C2CCN(C(=O)C3(C)CC3)CC2)C[C@@H]1c1ccc(F)c(F)c1` [Example 66, 6-((S)-1-{(3S,4S)-3-(3,4-Difluoro-phenyl)-1-[1-(1-methyl-cyclopropanecarbonyl)-piperidine-4-carbonyl]-piperidin-4-yl}-ethoxy)-nicotinonitrile], the negative logarithm of the Ki (pKi) is 8.34.

On to `Cc1noc(-c2ccc(C(=O)N3CC[C@H]([C@H](C)Oc4ccc(C(F)(F)F)cn4)[C@@H](c4ccc(Cl)cc4)C3)cc2)n1` [Example 18, {(3S,4S)-3-(4-Chloro-phenyl)-4-[(S)-1-(5-trifluoromethyl-pyridin-2-yloxy)-ethyl]-piperidin-1-yl}-[4-(3-methyl-[1,2,4]oxadiazol-5-yl)-phenyl]-methanone], for which the pKi was 8.92.

Regarding `C[C@H](Oc1ccc(F)c(F)c1)[C@H]1CCN(C(=O)C2CCN(c3ccc(C#N)cn3)CC2)C[C@@H]1c1ccc(Cl)cc1` [Example 54, 4-{(3S,4S)-3-(4-Chloro-phenyl)-4-[(S)-1-(3,4-difluoro-phenoxy)-ethyl]-piperidine-1-carbonyl}-3,4,5,6-tetrahydro-2H-[1,2′]bipyridinyl-5′-carbonitrile], the negative-log Ki (pKi) was 8.77.

In the case of `N#Cc1ccc(N2CCC(C(=O)N3CC[C@H](COc4ccc(Cl)cn4)[C@@H](c4ccccc4)C3)CC2)nc1` [Example 47, 4-[(3S,4S)-4-(5-Chloro-pyridin-2-yloxymethyl)-3-phenyl-piperidine-1-carbonyl]-3,4,5,6-tetrahydro-2H-[1,2′]bipyridinyl-5′-carbonitrile], the pKi is 8.00.

Consider `C[C@H](Oc1ccc(C#N)cn1)[C@H]1CCN(C(=O)N2CCN(S(C)(=O)=O)CC2)C[C@@H]1c1ccc(Cl)cc1` [Example 28, 6-{(S)-1-[(3S,4S)-3-(4-Chloro-phenyl)-1-(4-methanesulfonyl-piperazine-1-carbonyl)-piperidin-4-yl]-ethoxy}-nicotinonitrile], for which the negative logarithm of the Ki (pKi) was 8.52.

In the case of `Cc1cc(C(=O)N2CC[C@H]([C@H](C)Oc3ccc(C(F)(F)F)cn3)[C@@H](c3ccc(Cl)cc3)C2)cnn1` [Example 17, {(3S,4S)-3-(4-Chloro-phenyl)-4-[(S)-1-(5-trifluoromethyl-pyridin-2-yloxy)-ethyl]-piperidin-1-yl}-(6-methyl-pyridazin-4-yl)-methanone], the pKi is 8.25.

For `C[C@H](Oc1ccc(C(F)(F)F)cn1)[C@H]1CCN(C(=O)N2CCN(S(C)(=O)=O)CC2)C[C@@H]1c1ccc(Cl)cc1` [Example 21, {(3S,4S)-3-(4-Chloro-phenyl)-4-[(S)-1-(5-trifluoromethyl-pyridin-2-yloxy)-ethyl]-piperidin-1-yl}-(4-methanesulfonyl-piperazin-1-yl)-methanone], the pKi is 8.33.

Take `C[C@H](Oc1ccc(Cl)cn1)[C@H]1CCN(C(=O)C2CCN(c3ccc(C#N)cn3)CC2)C[C@@H]1c1ccc(F)c(F)c1` [Example 62, 4-[(3S,4S)-4-[(S)-1-(5-Chloro-pyridin-2-yloxy)-ethyl]-3-(3,4-difluoro-phenyl)-piperidine-1-carbonyl]-3,4,5,6-tetrahydro-2H-[1,2′]bipyridinyl-5′-carbonitrile]: the negative logarithm of the Ki (pKi) was 9.70.

With `C[C@H](Oc1ccc(F)cc1)[C@H]1CCN(C(=O)C2CCN(c3ccc(C#N)cn3)CC2)C[C@@H]1c1ccc(Cl)cc1` [Example 53, 4-{(3S,4S)-3-(4-Chloro-phenyl)-4-[(S)-1-(4-fluoro-phenoxy)-ethyl]-piperidine-1-carbonyl}-3,4,5,6-tetrahydro-2H-[1,2′]bipyridinyl-5′-carbonitrile], the pKi was 9.22.

For `CC1(C(=O)N2CCC(C(=O)N3CC[C@H](COc4ccc(Cl)cn4)[C@@H](c4ccc(F)c(F)c4)C3)CC2)CC1` (racemic) [Example 32, {4-[(3SR,4SR)-4-(5-Chloro-pyridin-2-yloxymethyl)-3-(3,4-difluoro-phenyl)-piperidine-1-carbonyl]-piperidin-1-yl}-(1-methyl-cyclopropyl)-methanone], the pKi is 8.24.
